Experimental data from PubChem BioAssay AID651650 (Sanford-Burnham Center for Chemical Genomics, 2012).
Calls of active or inactive are those of the source.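 Rule for the calls: active = mean IC50 below 20 µM in each of the two panels, so potent in both; inactive = the rest.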

Each molecule was assayed against Neuropilin-1 (Homo sapiens) (UniProt O14786) (assay: blockers of CendR peptide binding to NRP-1 – biochemical, FP and AlphaScreen panel, dose response (AID 651650)). Settings: NRP-1 b1b2 / RPARPAR peptide binding, FP or AlphaScreen; FP, mean of runs.
Neuropilin-1 (Homo sapiens), sequence (O14786 whole entry, looked up): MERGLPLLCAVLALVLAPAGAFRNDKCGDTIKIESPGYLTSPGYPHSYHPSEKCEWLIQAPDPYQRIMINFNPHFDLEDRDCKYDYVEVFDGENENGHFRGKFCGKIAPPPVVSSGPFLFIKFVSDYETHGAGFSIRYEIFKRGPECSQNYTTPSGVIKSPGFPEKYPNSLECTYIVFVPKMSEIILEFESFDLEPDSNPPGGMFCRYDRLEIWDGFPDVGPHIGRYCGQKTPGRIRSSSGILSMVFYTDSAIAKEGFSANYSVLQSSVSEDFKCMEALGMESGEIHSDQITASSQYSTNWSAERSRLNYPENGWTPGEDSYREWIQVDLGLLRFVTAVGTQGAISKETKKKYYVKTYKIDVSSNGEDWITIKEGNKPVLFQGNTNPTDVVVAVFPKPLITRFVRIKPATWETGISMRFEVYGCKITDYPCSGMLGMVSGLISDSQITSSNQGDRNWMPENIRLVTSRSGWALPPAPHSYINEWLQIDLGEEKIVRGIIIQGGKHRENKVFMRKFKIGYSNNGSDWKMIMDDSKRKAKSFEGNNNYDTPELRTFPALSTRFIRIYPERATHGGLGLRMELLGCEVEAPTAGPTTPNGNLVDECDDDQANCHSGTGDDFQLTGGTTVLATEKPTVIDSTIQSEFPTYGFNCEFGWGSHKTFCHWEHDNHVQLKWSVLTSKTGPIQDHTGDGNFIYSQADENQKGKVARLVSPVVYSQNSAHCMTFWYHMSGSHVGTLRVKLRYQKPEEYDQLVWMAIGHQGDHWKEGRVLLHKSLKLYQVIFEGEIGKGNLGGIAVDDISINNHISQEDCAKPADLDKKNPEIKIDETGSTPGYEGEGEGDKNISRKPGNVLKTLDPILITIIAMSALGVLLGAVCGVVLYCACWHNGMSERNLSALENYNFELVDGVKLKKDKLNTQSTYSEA

Compound | IC50
O=C(/C=C/c1ccccc1)c1ccccn1 | > 95 µM (inactive)
Cc1ccc(S(=O)(=O)N2[C@@H](c3ccc(Cl)cc3)C(C(=O)OC(C)(C)C)=CC[C@H]2c2ccc(Cl)c(Cl)c2)cc1 | > 95 µM (inactive)
Cc1ccc(OCC(=O)Nc2ccc(C)c(S(=O)(=O)N3CCCCCC3)c2)c([N+](=O)[O-])n1 | > 95 µM (inactive)
CN(c1ccccc1)S(=O)(=O)c1cccc(NC(=O)CSc2nncn2C)c1 | > 95 µM (inactive)
O=Cc1ccc(-c2ccccc2C(=O)O)o1 | > 95 µM (inactive)
CCOC(=O)CNc1ccc2c(c1)OCO2 | inactive
Cc1ccc(C(=O)C2CN3CCC2CC3)cc1 (stereo not given) | > 95 µM (inactive)
COC(=O)CCCC1=CC2=CC(=O)C(C)(OC(=O)c3cccs3)C(=O)C2=CN1CCCCO (stereo not given) | > 95 µM (inactive)
O=[N+]([O-])c1ccc(Nc2nc(NC3CCCCC3)nc(N3CCCC3)n2)cc1 | > 95 µM (inactive)
O=C1CCC/C=C\C[C@@H](CC(=O)N(CCO)Cc2ccccc2)C(=O)N2CCC[C@H]2CO1 | > 95 µM (inactive)
CCOC(=O)N1CCN(C(=O)c2cc(COc3ccc(OC)cc3Cl)on2)CC1 | > 95 µM (inactive)
Cc1cccc(NS(=O)(=O)c2cccs2)c1 | > 95 µM (inactive)
CC1CCN(C(=O)c2[nH]cnc2C(=O)NCc2ccc(CNC(=O)OC(C)(C)C)cc2)CC1 | > 95 µM (inactive)
O=C(CN1C2=NCCN2c2ccccc21)c1ccco1 | > 95 µM (inactive)
COc1ccc([C@H]2/C=C\CN(C(=O)C3CC3)[C@@H](C)C(=O)N2Cc2ccc(F)cc2)cc1 | > 95 µM (inactive)
CC(=O)Nc1ccccc1OCC(=O)N(Cc1ccccc1)C(C)C | > 95 µM (inactive)
Cc1ccc(Cl)cc1N1CCN(C(=O)c2cccc3c(=O)c(C)c(-c4ccccc4)oc23)CC1 | inactive
CCN(CC)C(=O)C1CCCN(C(=O)Nc2ccc3nsnc3c2)C1 (stereo not given) | > 95 µM (inactive)
Cc1csc(NC(C)c2nc3cc(C(F)(F)F)ccc3n2CCOCCO)n1 (stereo not given) | > 95 µM (inactive)
COc1ccc(OCC(=O)O/N=C(\N)Cc2ccc(Cl)cc2Cl)cc1 | > 95 µM (inactive)
CC(O)(c1cccnc1)c1nc(/C=C/c2ccccc2)cs1 (stereo not given) | > 95 µM (inactive)
COc1ccc(CCNC(=O)c2c(O)c3cccc4c3n(c2=O)CC4)cc1OC | > 95 µM (inactive)
O=C(Nc1ccccc1N1CCOCC1)c1ccc(N2CCCC2=O)cc1 | > 95 µM (inactive)

Same assay, conditions: NRP-1 b1b2 / RPARPAR peptide binding, FP or AlphaScreen; FP, run 1; individual panel run IC50

Compound | IC50 [µM]
O=c1c2cn[nH]c2nc(SCc2ccccc2F)n1-c1ccc(Br)cc1 | > 95
CCOC(=O)C1(Cc2cccc(F)c2)CCN(Cc2ccon2)CC1 | > 95
Cc1cc(C)n2c(SCC(=O)Nc3cccc(S(N)(=O)=O)c3)nnc2n1 | > 95
NS(=O)(=O)c1ccc(CNC(=S)NCc2ccc(F)cc2)cc1 | > 95
CCC1CCCCN1CCCNC(=O)C1CCCN(S(=O)(=O)N2CC(C)CC(C)C2)C1 (stereo not given) | > 95
CC(=O)C(C(c1ccccc1)N1CCCc2ccccc21)N1CCOCC1 (stereo not given) | > 95
O=c1[nH]c(Nc2ccccn2)cc2ccccc12 | > 95
NNc1ncnc2c1cnn2-c1ccccc1 | > 95
COC(=O)CCCC1=CC2=CC(=O)C(C)(OC(=O)c3cccs3)C(=O)C2=CN1CCCOC(C)C (stereo not given) | > 95
Cc1nnc(NC(=O)c2ccccc2C(=O)O)s1 | > 95
COc1ccc(-c2[nH]ncc2CN(C)CCc2c(C)n[nH]c2C)c(F)c1 | > 95
CN(C)/N=C/c1ccc(Sc2ccc([N+](=O)[O-])cc2[N+](=O)[O-])o1 | > 95
C=C(C)COc1ccc(-c2[nH]ncc2-c2ccccc2)c(O)c1 | > 95
Cc1cc(NC(=O)COC(=O)c2ccc(C)c(C)c2)no1 | > 95
COc1cc(C(=O)OCC(=O)Nc2c(F)c(F)c(F)c(F)c2F)cc(OC)c1OC | > 95
COc1ccc(Cl)cc1NC(=O)C(C)N1CCc2ccccc21 (stereo not given) | 50
CC(C(=O)N1CCN(c2ccc(Cl)cc2)CC1)c1ncc(C(F)(F)F)cc1Cl (stereo not given) | > 95
O=C(O)c1cc(NCc2ccc(F)cc2)ccc1N1CCOCC1 | > 95
O=[N+]([O-])c1ccc(-n2nnnc2CN2CCCCC2)cc1 | > 95
CC(C)C(N)c1csc(NC(=O)Nc2cccc(C(F)(F)F)c2)n1 (stereo not given) | > 95
Cc1ccccc1NC(=O)c1cccc(NC(=O)CCC(=O)O)c1 | > 95
O=C(O)c1ccccc1CSc1ccccn1 | > 95
O=C1C=CC(=O)C2C1C1(Cl)C(Cl)=C(Cl)C2(Cl)C1(Cl)Cl (stereo not given) | > 95

Compound | IC50 [µM]
O=C(/C=C/c1ccccc1)c1ccccn1 | > 95
Cc1ccc(S(=O)(=O)N2[C@@H](c3ccc(Cl)cc3)C(C(=O)OC(C)(C)C)=CC[C@H]2c2ccc(Cl)c(Cl)c2)cc1 | > 95
Cc1ccc(OCC(=O)Nc2ccc(C)c(S(=O)(=O)N3CCCCCC3)c2)c([N+](=O)[O-])n1 | > 95
CN(c1ccccc1)S(=O)(=O)c1cccc(NC(=O)CSc2nncn2C)c1 | > 95
O=Cc1ccc(-c2ccccc2C(=O)O)o1 | > 95
CCOC(=O)CNc1ccc2c(c1)OCO2 | > 95
Cc1ccc(C(=O)C2CN3CCC2CC3)cc1 (stereo not given) | > 95
COC(=O)CCCC1=CC2=CC(=O)C(C)(OC(=O)c3cccs3)C(=O)C2=CN1CCCCO (stereo not given) | > 95
O=[N+]([O-])c1ccc(Nc2nc(NC3CCCCC3)nc(N3CCCC3)n2)cc1 | > 95
O=C1CCC/C=C\C[C@@H](CC(=O)N(CCO)Cc2ccccc2)C(=O)N2CCC[C@H]2CO1 | > 95
CCOC(=O)N1CCN(C(=O)c2cc(COc3ccc(OC)cc3Cl)on2)CC1 | > 95
Cc1cccc(NS(=O)(=O)c2cccs2)c1 | > 95
CC1CCN(C(=O)c2[nH]cnc2C(=O)NCc2ccc(CNC(=O)OC(C)(C)C)cc2)CC1 | > 95
O=C(CN1C2=NCCN2c2ccccc21)c1ccco1 | > 95
COc1ccc([C@H]2/C=C\CN(C(=O)C3CC3)[C@@H](C)C(=O)N2Cc2ccc(F)cc2)cc1 | > 95
CC(=O)Nc1ccccc1OCC(=O)N(Cc1ccccc1)C(C)C | > 95
Cc1ccc(Cl)cc1N1CCN(C(=O)c2cccc3c(=O)c(C)c(-c4ccccc4)oc23)CC1 | 26.6
CCN(CC)C(=O)C1CCCN(C(=O)Nc2ccc3nsnc3c2)C1 (stereo not given) | > 95
Cc1csc(NC(C)c2nc3cc(C(F)(F)F)ccc3n2CCOCCO)n1 (stereo not given) | > 95
COc1ccc(OCC(=O)O/N=C(\N)Cc2ccc(Cl)cc2Cl)cc1 | > 95
CC(O)(c1cccnc1)c1nc(/C=C/c2ccccc2)cs1 (stereo not given) | > 95
COc1ccc(CCNC(=O)c2c(O)c3cccc4c3n(c2=O)CC4)cc1OC | > 95
O=C(Nc1ccccc1N1CCOCC1)c1ccc(N2CCCC2=O)cc1 | > 95

Same assay, conditions: NRP-1 b1b2 / RPARPAR peptide binding, FP or AlphaScreen; FP, run 2; individual panel run IC50

Compound | IC50 [µM]
O=c1c2cn[nH]c2nc(SCc2ccccc2F)n1-c1ccc(Br)cc1 | > 95
CCOC(=O)C1(Cc2cccc(F)c2)CCN(Cc2ccon2)CC1 | > 95
Cc1cc(C)n2c(SCC(=O)Nc3cccc(S(N)(=O)=O)c3)nnc2n1 | > 95
NS(=O)(=O)c1ccc(CNC(=S)NCc2ccc(F)cc2)cc1 | > 95
CCC1CCCCN1CCCNC(=O)C1CCCN(S(=O)(=O)N2CC(C)CC(C)C2)C1 (stereo not given) | > 95
CC(=O)C(C(c1ccccc1)N1CCCc2ccccc21)N1CCOCC1 (stereo not given) | > 95
O=c1[nH]c(Nc2ccccn2)cc2ccccc12 | > 95
NNc1ncnc2c1cnn2-c1ccccc1 | > 95
COC(=O)CCCC1=CC2=CC(=O)C(C)(OC(=O)c3cccs3)C(=O)C2=CN1CCCOC(C)C (stereo not given) | > 95
Cc1nnc(NC(=O)c2ccccc2C(=O)O)s1 | > 95
COc1ccc(-c2[nH]ncc2CN(C)CCc2c(C)n[nH]c2C)c(F)c1 | > 95
CN(C)/N=C/c1ccc(Sc2ccc([N+](=O)[O-])cc2[N+](=O)[O-])o1 | > 95
C=C(C)COc1ccc(-c2[nH]ncc2-c2ccccc2)c(O)c1 | > 95
Cc1cc(NC(=O)COC(=O)c2ccc(C)c(C)c2)no1 | > 95
COc1cc(C(=O)OCC(=O)Nc2c(F)c(F)c(F)c(F)c2F)cc(OC)c1OC | > 95
COc1ccc(Cl)cc1NC(=O)C(C)N1CCc2ccccc21 (stereo not given) | 30.3
CC(C(=O)N1CCN(c2ccc(Cl)cc2)CC1)c1ncc(C(F)(F)F)cc1Cl (stereo not given) | > 95
O=C(O)c1cc(NCc2ccc(F)cc2)ccc1N1CCOCC1 | > 95
O=[N+]([O-])c1ccc(-n2nnnc2CN2CCCCC2)cc1 | > 95
CC(C)C(N)c1csc(NC(=O)Nc2cccc(C(F)(F)F)c2)n1 (stereo not given) | > 95
Cc1ccccc1NC(=O)c1cccc(NC(=O)CCC(=O)O)c1 | > 95
O=C(O)c1ccccc1CSc1ccccn1 | > 95
O=C1C=CC(=O)C2C1C1(Cl)C(Cl)=C(Cl)C2(Cl)C1(Cl)Cl (stereo not given) | > 95

Compound | IC50 [µM]
O=C(/C=C/c1ccccc1)c1ccccn1 | > 95
Cc1ccc(S(=O)(=O)N2[C@@H](c3ccc(Cl)cc3)C(C(=O)OC(C)(C)C)=CC[C@H]2c2ccc(Cl)c(Cl)c2)cc1 | > 95
Cc1ccc(OCC(=O)Nc2ccc(C)c(S(=O)(=O)N3CCCCCC3)c2)c([N+](=O)[O-])n1 | > 95
CN(c1ccccc1)S(=O)(=O)c1cccc(NC(=O)CSc2nncn2C)c1 | > 95
O=Cc1ccc(-c2ccccc2C(=O)O)o1 | > 95
CCOC(=O)CNc1ccc2c(c1)OCO2 | 38.7
Cc1ccc(C(=O)C2CN3CCC2CC3)cc1 (stereo not given) | > 95
COC(=O)CCCC1=CC2=CC(=O)C(C)(OC(=O)c3cccs3)C(=O)C2=CN1CCCCO (stereo not given) | > 95
O=[N+]([O-])c1ccc(Nc2nc(NC3CCCCC3)nc(N3CCCC3)n2)cc1 | > 95
O=C1CCC/C=C\C[C@@H](CC(=O)N(CCO)Cc2ccccc2)C(=O)N2CCC[C@H]2CO1 | > 95
CCOC(=O)N1CCN(C(=O)c2cc(COc3ccc(OC)cc3Cl)on2)CC1 | > 95
Cc1cccc(NS(=O)(=O)c2cccs2)c1 | > 95
CC1CCN(C(=O)c2[nH]cnc2C(=O)NCc2ccc(CNC(=O)OC(C)(C)C)cc2)CC1 | > 95
O=C(CN1C2=NCCN2c2ccccc21)c1ccco1 | > 95
COc1ccc([C@H]2/C=C\CN(C(=O)C3CC3)[C@@H](C)C(=O)N2Cc2ccc(F)cc2)cc1 | > 95
CC(=O)Nc1ccccc1OCC(=O)N(Cc1ccccc1)C(C)C | > 95
Cc1ccc(Cl)cc1N1CCN(C(=O)c2cccc3c(=O)c(C)c(-c4ccccc4)oc23)CC1 | > 95
CCN(CC)C(=O)C1CCCN(C(=O)Nc2ccc3nsnc3c2)C1 (stereo not given) | > 95
Cc1csc(NC(C)c2nc3cc(C(F)(F)F)ccc3n2CCOCCO)n1 (stereo not given) | > 95
COc1ccc(OCC(=O)O/N=C(\N)Cc2ccc(Cl)cc2Cl)cc1 | > 95
CC(O)(c1cccnc1)c1nc(/C=C/c2ccccc2)cs1 (stereo not given) | > 95
COc1ccc(CCNC(=O)c2c(O)c3cccc4c3n(c2=O)CC4)cc1OC | > 95
O=C(Nc1ccccc1N1CCOCC1)c1ccc(N2CCCC2=O)cc1 | > 95
